Measurements published in patent publication US6740635B2, “Antiviral linear polymers” (Biomolecular Research Institute Ltd., priority 1996, dated 2004).
Values after ≈ are worked out from the molar mass of the structure shown. Read-outs that look alike come from different tables or passages of the source.

Columns and labels:
HIV 1 IIIB = assay: microbe, parasite or virus in culture; format: cell-based, Human Immunodeficiency Virus type 1; settings: Human immunodeficiency virus 1, IIIB
in vitro [1] = assay: in vitro
HSV-2 [2] = assay: HSV-2 Plaque Reduction; settings: Human alphaherpesvirus 2, HFF, in Homo sapiens, read-out: EC50, HSV-2 Plaque Reduction
HSV-1 [3] = assay: HSV-1 CPE Inhibition; settings: Human alphaherpesvirus 1, HFF, in Homo sapiens, read-out: EC50, HSV-1 CPE Inhibition
VZV = VZV viral count or plaque reduction; format: cell-based, Varicella Zoster Virus; settings: Human alphaherpesvirus 3
HSV-1 [4] = assay: HSV-1 Plaque Reduction; settings: Human alphaherpesvirus 1, HFF, in Homo sapiens, read-out: EC50, HSV-1 Plaque Reduction
HSV-2 [5] = assay: HSV-2 CPE Inhibition; settings: Human alphaherpesvirus 2, HFF, in Homo sapiens, read-out: EC50, HSV-2 CPE Inhibition
in vitro [6] = settings: mouse
MCMV = MCMV Plaque Reduction; settings: Mus musculus, MEF, read-out: EC50, MCMV Plaque Reduction
[7] = tested on: Cytomegalovirus (Davis strain); assay: HCMV Plaque Reduction; settings: Human betaherpesvirus 5, HFF, in Homo sapiens, read-out: EC50, HCMV Plaque Reduction
[8] = tested on: Cytomegalovirus (Davis strain); assay: HCMV CPE Inhibition; settings: Human betaherpesvirus 5, HFF, in Homo sapiens, read-out: EC50, HCMV CPE Inhibition
RSV; A2 [9] = assay: RSV A2 Neutral Red cell count; format: cell-based; settings: human respiratory syncytial virus, read-out: NR = Neutral Red cell count EC50
RSV; A2 [10] = assay: RSV A2 viral count or plaque reduction; format: cell-based; settings: human respiratory syncytial virus, Table 5
Flu B = assay: microbe, parasite or virus in culture; format: cell-based; settings: Influenza B virus, read-out: NR = Neutral Red cell count EC50
RSV; Long = assay: RSV Long CPE-inhibition; format: cell-based, Respiratory Syncytial Virus
RSV; A2 [11] = assay: RSV A2 virus yield
CMV = assay: microbe, parasite or virus in culture; format: cell-based; settings: Human betaherpesvirus 5, read-out: CPE-inhibition EC50

Question: Which results are given for `Cc1cn([C@H]2C[C@H](N=[N+]=[N-])[C@@H](CO)O2)c(=O)[nH]c1=O` [AZT, Zidovudine]?
Answer: EC50 (HIV 1 IIIB): 0.0001 µg/mL; EC50 (HIV 1 IIIB; read-out: CPE-inhibition EC50): 0.37 nM; CC50 (in vitro [1]; CC50, parallel to HIV 1 IIIB test, Table 1, standards): 1.17 µg/mL; CC50 (in vitro [1]; CPE-inhibition (CC50), parallel to HIV-1 IIIB test, Table 5, Concentrations μM): 4.38 µM

Question: For `Nc1nc2c(ncn2COCCO)c(=O)[nH]1` [Acyclovir], which EC50 (HSV-2 [2]) is on record?
Answer: The EC50 was 0.6 µg/mL (≈ 2.66 µM).

Question: What about the EC50 (HSV-1 [3]) of the same compound?
Answer: The EC50 was 0.06 µg/mL (≈ 0.266 µM).

Question: And the EC50 (VZV)?
Answer: The EC50 was 0.5 µg/mL (≈ 2.22 µM).

Question: And the EC50 (HSV-1 [4])?
Answer: Its EC50 is 0.3 µg/mL (≈ 1.33 µM).

Question: What about the EC50 (HSV-2 [5]) of the same compound?
Answer: The EC50 was 0.2 µg/mL (≈ 0.888 µM).

Question: What does the source list for `Nc1nc(O)c2ncn(COC(CO)CO)c2n1` [Ganciclovir]?
Answer: CC50 (in vitro [6]): 0.5 µg/mL (≈ 1.96 µM); EC50 (MCMV): 0.6 µg/mL (≈ 2.35 µM); EC50 [7]: 0.2 µg/mL (≈ 0.784 µM); EC50 [8]: 0.1 µg/mL (≈ 0.392 µM)

Question: With `NC(=O)c1ncn([C@@H]2O[C@H](CO)[C@@H](O)[C@H]2O)n1` [Ribavirin] as the compound, how does the EC50 (RSV; A2 [9]) read?
Answer: The EC50 was 1 µg/mL (≈ 4.09 µM).

Question: What about the EC50 (RSV; A2 [10]) of the same compound?
Answer: The EC50 was 2 µg/mL (≈ 8.19 µM).

Question: And the EC50 (Flu B)?
Answer: The EC50 was 1.8 µg/mL (≈ 7.37 µM).

Question: And the “CPE-inhibition EC50” value (RSV; Long)?
Answer: Its value is 7 µg/mL.

Question: What about the EC50 (RSV; Long; human respiratory syncytial virus) of the same compound?
Answer: Its EC50 is 10 µg/mL (≈ 40.9 µM).

Question: What about the “Virus Yield SI = CC50/EC90” value (RSV; A2 [11]; RSV, A2) of the same compound?
Answer: Its value is 12.

Question: What about the EC50 (RSV; A2 [11]; human respiratory syncytial virus, read-out: Virus Yield EC50) of the same compound?
Answer: The EC50 was 6 µg/mL (≈ 24.6 µM).

Question: And the EC90 (RSV; A2 [11]; human respiratory syncytial virus, read-out: Virus Yield EC90)?
Answer: Its EC90 is 6 µg/mL (≈ 24.6 µM).

Question: And the CC50 (in vitro [1])?
Answer: Its CC50 is > 100 µg/mL.

Question: And the CC50 (in vitro [1]; CPE-inhibition (CC50), parallel to CMV CPE-inhibition, Table 6)?
Answer: Its CC50 is 118 µg/mL.

Question: What about the CC50 (in vitro [1]; CPE-inhibition (CC50), parallel to RSV A2 CPE-inhibition) of the same compound?
Answer: The CC50 was > 1000 µg/mL.

Question: And the CC50 (in vitro [1]; NR = Neutral Red cell count (CC50))?
Answer: Its CC50 is 40 µg/mL.

Question: What about the CC50 (in vitro [1]; Viral count or Plaque Reduction (CC50), parallel to RSV A2 viral count, Table 5) of the same compound?
Answer: The CC50 was > 1000 µg/mL.

Question: And the CC50 (in vitro [1]; Virus Yield (CC50), parallel to RSV A2 virus yield test)?
Answer: The CC50 was 71 µg/mL.

Question: And the EC50 (CMV)?
Answer: The EC50 was 25 µg/mL (≈ 102 µM).

Question: For “poly-L-lysyl [(8-octanamido)-5-acetamido-3,5-dideoxy-2-thio-D-glycero-α-D-galacto-2-nonulopyranosidoic acid]n [BRI 6150]”, which “Virus Yield (CC50)” value (uninfected cells) is on record?
Answer: The value was > 1000 µg/mL.
